Experiments:
D(4) dopamine receptor = target: T1, D(4) dopamine receptor (Homo sapiens, UniProt P21917); test: Displacement of [3H]spiperone from human cloned dopamine D4 receptor
T1 sequence (P21917 whole entry): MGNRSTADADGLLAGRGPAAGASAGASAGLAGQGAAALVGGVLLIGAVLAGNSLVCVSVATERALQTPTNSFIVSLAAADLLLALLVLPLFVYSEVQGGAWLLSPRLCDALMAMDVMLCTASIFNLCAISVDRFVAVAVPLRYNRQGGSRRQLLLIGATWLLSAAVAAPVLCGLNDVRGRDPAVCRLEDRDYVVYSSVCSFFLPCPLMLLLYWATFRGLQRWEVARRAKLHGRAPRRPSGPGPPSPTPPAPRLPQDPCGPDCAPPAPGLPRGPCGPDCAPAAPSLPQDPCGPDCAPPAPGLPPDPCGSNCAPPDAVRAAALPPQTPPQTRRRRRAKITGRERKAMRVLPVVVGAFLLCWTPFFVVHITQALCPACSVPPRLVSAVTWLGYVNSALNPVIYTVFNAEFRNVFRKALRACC

[1] = target: 5-hydroxytryptamine receptor 2A (Homo sapiens, UniProt P28223); test: Displacement of [3H]ketanserin from human cloned 5HT2A receptor
D(3) dopamine receptor = D(3) dopamine receptor (Homo sapiens, UniProt P35462); test: Displacement of [3H]spiperone from human cloned dopamine D3 receptor
[2] = target: 5-hydroxytryptamine receptor 6 (Homo sapiens, UniProt P50406); test: Displacement of [3H]LSD from human cloned 5HT6 receptor
[3] = target: T2, 5-hydroxytryptamine receptor 1A (Homo sapiens, UniProt P08908); test: Displacement of [3H]8-OH-DPAT from human cloned 5HT1A receptor
T2 sequence (P08908 whole entry): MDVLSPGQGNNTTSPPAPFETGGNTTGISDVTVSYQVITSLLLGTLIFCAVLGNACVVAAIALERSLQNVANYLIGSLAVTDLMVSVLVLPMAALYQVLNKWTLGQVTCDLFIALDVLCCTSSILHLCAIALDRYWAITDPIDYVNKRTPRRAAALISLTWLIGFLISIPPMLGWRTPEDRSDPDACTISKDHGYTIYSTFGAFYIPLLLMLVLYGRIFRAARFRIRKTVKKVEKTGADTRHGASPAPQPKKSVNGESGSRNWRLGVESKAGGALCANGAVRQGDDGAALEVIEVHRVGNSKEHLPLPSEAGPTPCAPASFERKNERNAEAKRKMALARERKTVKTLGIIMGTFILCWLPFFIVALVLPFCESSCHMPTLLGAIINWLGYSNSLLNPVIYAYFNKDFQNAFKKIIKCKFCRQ

[4] = target: 5-hydroxytryptamine receptor 7 (Homo sapiens, UniProt P34969); test: Displacement of [3H]LSD from human cloned 5HT7 receptor
D(2) dopamine receptor = D(2) dopamine receptor (Homo sapiens, UniProt P14416); test: Displacement of [3H]spiperone from human cloned dopamine D2 receptor
[5] = target: T3, 5-hydroxytryptamine receptor 2C (Homo sapiens, UniProt P28335); test: Displacement of [3H]mesulergine at human cloned 5HT2C receptor expressed in CHOK1 cell; type: cell-based, CHO-K1
T3 sequence (P28335 whole entry): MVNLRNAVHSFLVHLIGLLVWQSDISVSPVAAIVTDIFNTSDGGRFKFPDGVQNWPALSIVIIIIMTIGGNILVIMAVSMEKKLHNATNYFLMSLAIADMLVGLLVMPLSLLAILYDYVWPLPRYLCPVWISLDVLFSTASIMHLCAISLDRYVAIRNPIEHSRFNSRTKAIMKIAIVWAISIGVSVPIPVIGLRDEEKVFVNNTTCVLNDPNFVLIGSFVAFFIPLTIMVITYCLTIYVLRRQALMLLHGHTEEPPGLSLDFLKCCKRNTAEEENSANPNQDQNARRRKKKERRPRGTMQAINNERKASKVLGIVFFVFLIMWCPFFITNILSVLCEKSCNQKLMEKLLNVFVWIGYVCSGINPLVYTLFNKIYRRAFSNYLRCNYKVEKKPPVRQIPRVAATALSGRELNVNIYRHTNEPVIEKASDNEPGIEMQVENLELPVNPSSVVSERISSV

Sequence of D(2) dopamine receptor (P14416 whole entry): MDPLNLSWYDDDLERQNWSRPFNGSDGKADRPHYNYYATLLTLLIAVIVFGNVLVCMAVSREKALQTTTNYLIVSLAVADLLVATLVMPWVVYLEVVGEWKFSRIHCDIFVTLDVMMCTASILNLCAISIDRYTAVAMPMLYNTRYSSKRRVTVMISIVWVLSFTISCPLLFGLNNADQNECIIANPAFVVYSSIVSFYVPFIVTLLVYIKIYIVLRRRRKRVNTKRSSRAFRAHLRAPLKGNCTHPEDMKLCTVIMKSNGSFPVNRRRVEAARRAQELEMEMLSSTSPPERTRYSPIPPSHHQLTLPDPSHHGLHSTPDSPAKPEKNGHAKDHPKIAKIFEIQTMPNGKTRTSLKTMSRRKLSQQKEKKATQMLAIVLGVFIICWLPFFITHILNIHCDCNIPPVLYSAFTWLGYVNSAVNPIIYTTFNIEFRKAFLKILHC
Sequence of 5-hydroxytryptamine receptor 2A (P28223 whole entry): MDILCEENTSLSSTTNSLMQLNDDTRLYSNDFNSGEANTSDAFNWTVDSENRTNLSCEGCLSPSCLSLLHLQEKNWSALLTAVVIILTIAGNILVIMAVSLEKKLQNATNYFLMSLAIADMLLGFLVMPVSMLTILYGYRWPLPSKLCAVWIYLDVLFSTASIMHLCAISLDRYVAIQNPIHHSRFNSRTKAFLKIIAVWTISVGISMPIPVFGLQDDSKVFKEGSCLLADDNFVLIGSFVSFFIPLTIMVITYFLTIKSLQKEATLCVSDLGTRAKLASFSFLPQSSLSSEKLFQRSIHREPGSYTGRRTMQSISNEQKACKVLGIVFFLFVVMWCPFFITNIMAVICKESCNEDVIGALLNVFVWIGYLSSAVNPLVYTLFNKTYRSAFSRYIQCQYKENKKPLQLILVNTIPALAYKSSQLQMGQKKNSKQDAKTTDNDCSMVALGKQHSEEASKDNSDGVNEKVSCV
Sequence of 5-hydroxytryptamine receptor 7 (P34969 whole entry): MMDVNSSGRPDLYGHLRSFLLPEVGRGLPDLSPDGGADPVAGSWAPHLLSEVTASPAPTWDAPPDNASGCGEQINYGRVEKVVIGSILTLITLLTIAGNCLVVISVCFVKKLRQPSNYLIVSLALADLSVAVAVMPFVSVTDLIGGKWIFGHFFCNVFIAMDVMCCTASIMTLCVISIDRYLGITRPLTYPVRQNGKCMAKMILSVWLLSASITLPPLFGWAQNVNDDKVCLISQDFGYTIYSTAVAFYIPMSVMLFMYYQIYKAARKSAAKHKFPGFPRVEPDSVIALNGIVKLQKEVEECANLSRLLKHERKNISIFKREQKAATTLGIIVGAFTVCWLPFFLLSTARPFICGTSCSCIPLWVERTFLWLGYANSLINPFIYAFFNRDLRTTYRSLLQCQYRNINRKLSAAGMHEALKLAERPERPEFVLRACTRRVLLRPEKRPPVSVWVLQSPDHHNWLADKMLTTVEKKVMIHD
Sequence of 5-hydroxytryptamine receptor 6 (P50406 whole entry): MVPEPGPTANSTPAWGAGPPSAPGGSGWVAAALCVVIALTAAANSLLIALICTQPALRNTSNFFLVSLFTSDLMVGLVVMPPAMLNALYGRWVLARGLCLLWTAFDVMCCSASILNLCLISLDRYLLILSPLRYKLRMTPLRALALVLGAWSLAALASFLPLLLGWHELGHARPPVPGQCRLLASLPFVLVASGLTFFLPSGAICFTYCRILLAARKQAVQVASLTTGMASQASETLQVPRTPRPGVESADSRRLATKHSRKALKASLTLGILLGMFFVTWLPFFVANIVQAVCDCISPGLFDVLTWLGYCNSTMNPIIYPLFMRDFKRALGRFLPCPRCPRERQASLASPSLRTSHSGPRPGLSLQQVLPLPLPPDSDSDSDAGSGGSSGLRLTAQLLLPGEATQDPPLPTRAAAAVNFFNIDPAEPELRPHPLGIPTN
Sequence of D(3) dopamine receptor (P35462 whole entry): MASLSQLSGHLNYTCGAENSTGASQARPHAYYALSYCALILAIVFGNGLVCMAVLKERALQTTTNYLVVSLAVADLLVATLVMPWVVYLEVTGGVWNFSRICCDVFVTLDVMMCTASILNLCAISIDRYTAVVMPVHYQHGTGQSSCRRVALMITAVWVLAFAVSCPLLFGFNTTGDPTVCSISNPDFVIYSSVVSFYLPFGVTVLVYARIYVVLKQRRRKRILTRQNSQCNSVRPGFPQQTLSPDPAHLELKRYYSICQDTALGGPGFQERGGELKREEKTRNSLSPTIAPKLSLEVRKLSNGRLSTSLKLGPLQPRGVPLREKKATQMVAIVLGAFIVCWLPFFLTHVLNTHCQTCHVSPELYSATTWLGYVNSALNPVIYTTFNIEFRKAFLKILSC

Compound | IC50 (D(4) dopamine receptor) [µM] | IC50 [5] [µM] | further results
O=C(Nc1ccc(Oc2cccnc2)nc1)c1c[nH]c2ccccc12 | > 10 | – | IC50 [1]: > 1 µM; IC50 (D(3) dopamine receptor): > 10 µM; IC50 [2]: > 10 µM; IC50 [3]: > 10 µM; IC50 [4]: > 10 µM; IC50 (D(2) dopamine receptor): > 10 µM
O=C(Nc1ccc(Oc2cccnc2Cl)nc1)c1c[nH]c2ccccc12 | > 10 | – | –
Cc1ncccc1Oc1ccc(NC(=O)c2cc3ccccc3[nH]2)cn1 | – | 0.059 | –

Continued, in another order:

IC50 (D(4) dopamine receptor) [µM] | IC50 [5] [µM] | Compound | further results
> 1 | – | Cc1cc2c(cc1C(F)(F)F)N(C(=O)Nc1ccc(Oc3cccnc3C)nc1)CC2 [SB-243213] | –
– | > 10 | O=C(Nc1cccnc1)c1c[nH]c2ccccc12 | –
– | 0.006 | O=C(Nc1ccc(OCc2ccccn2)nc1)c1c[nH]c2ccccc12 | –

From ChEMBL document CHEMBL1155132, “Synthesis and structure-activity relationship of 1H-indole-3-carboxylic acid pyridine-3-ylamides: a novel series of 5-HT2C receptor antagonists” (Bioorg Med Chem Lett, 2008)
